Test results: patent publication US20050228180A1, “Alpha, omega-dicarboximide derivatives as useful uro-selective a1a adrenoceptor blockers” (priority 2002, published 2005)
Structures can show the parent of a compound that is named as a salt.

Experiments:
Format in all cases: cell-based
[1] = biological target: T1, α1B adrenoceptor (spleen) (Rattus norvegicus, UniProt P15823); assay: In vitro functional assay, isolated spleen, phenylepinephrine contraction; settings: read-out: α Adrenoceptor Subtype (pKB) α1B (converted)
T1 construct: Isolated tissues were mounted in organ bath containing Krebs Henseleit buffer; from tissue; host or cells: isolated rat spleen
T1 sequence (P15823 1-515): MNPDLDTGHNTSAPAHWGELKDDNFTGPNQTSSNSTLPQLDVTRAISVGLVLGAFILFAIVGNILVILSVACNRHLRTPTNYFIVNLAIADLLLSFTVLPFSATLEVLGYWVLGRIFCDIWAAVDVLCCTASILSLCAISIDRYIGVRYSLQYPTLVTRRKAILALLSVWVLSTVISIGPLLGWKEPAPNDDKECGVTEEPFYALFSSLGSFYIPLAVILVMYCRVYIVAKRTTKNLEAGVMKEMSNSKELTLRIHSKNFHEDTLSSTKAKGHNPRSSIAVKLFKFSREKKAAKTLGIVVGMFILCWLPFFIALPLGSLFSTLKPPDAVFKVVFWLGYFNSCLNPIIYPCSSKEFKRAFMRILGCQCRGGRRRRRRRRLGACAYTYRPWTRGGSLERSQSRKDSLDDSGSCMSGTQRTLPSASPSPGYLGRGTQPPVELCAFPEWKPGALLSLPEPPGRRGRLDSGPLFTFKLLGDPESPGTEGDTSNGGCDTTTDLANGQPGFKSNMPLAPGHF
Procedure, shortened: (§1)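 Rat aorta, spleen and prostate strips from urethane-anaesthetised male Wistar rats in Krebs-Henseleit at 37 °C (95% O2/5% CO2), 2 g or 1 g resting tension, 2 h equilibration. Norepinephrine (aorta) or phenylephrine (spleen, prostate) contraction curves run without and with compound at […]; antagonist affinity given as pKB.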

[2] = biological target: T2, α1A adrenoceptor (prostate) (Rattus norvegicus, UniProt P43140); assay: In vitro functional assay, isolated prostate, phenylepinephrine contraction
T2 construct: from tissue; host or cells: isolated prostate tissue
T2 sequence (P43140 1-466): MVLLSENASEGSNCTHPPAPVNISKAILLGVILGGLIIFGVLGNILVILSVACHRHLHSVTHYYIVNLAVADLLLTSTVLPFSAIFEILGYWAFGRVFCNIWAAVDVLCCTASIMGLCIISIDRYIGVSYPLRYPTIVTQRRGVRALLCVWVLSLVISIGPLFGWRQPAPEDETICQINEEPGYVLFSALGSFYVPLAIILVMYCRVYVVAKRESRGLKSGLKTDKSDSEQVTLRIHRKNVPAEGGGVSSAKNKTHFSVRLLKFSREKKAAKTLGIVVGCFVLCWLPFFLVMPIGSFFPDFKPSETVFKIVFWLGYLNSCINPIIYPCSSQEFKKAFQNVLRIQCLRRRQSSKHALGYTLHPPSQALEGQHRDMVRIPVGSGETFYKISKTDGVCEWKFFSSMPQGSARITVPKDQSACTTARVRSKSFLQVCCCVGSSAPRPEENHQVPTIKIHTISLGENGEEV
Procedure, shortened: as §1

α1D adrenoceptor (aorta) = biological target: T3, α1D adrenoceptor (aorta) (Rattus norvegicus, UniProt P23944); assay: In vitro functional assay, isolated aorta, norepinephrine contraction; settings: read-out: α Adrenoceptor Subtype (pKB) α1D (converted)
T3 construct: Isolated tissues were mounted in organ bath containing Krebs Henseleit buffer; from tissue; host or cells: isolated rat aorta
T3 sequence (P23944 1-561): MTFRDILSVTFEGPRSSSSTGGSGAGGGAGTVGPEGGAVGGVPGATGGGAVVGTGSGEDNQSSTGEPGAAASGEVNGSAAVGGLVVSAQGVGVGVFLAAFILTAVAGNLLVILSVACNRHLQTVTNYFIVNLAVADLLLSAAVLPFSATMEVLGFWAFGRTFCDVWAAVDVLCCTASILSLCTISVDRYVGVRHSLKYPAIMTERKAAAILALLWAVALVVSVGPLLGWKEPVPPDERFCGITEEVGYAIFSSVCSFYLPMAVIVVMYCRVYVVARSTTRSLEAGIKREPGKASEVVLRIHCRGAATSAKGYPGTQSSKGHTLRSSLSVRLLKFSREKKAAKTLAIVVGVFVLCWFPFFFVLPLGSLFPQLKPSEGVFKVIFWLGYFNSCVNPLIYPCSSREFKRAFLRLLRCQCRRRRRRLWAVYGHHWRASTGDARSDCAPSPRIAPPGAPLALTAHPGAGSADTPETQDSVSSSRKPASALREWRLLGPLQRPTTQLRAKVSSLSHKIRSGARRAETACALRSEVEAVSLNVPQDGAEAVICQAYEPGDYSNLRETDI
Procedure, shortened: as §1

CC(C)Oc1ccccc1N1CCN(CCCN2C(=O)C3CC(O)C(O)CC3C2=O)CC1 (centres unmarked) [Compound No. 23, 2-[3-{4-(2-Isopropoxyphenyl)piperazin-1-yl}propyl]-5,6-dihydroxy-3a,4,5,6,7,7a, hexahydro-1H-isoindole-1,3(2H)-dione-hydrochloride]
Kb [1]: 7.41 nM | Selectivity α1B/α1A ([2]; functional, from pKB): 5 | Selectivity α1D/α1A ([2]; functional, from pKB): 5.6 | Kb ([2]; rat prostate, phenylepinephrine, read-out: α Adrenoceptor Subtype (pKB) α1A (converted)): 1.48 nM | Kb (α1D adrenoceptor (aorta)): 8.32 nM
